Patent publication US20050267156A1, “Broadspectrum 2-amino-benzothiazole sulfonamide hiv protease inhibitors” (Tibotec Pharmaceuticals Ltd., priority 2002, published 2005)
Structures can show the parent of a compound that is named as a salt. Where two headings read alike, the source gives them in different places.

What was measured:
Type in all cases: cell-based
[1] = Toxicity on mock-infected cells (MTT); settings: human
Procedure: (§1) HIV- or mock-infected MT4 cells were incubated for five days in the presence of various concentrations of the inhibitor. At the end of the incubation period, the replicating virus in the control cultures has killed all HIV-infected cells in the absence of any inhibitor. Cell viability is measured by measuring the concentration of MTT, a yellow, water soluble tetrazolium dye that is converted to a purple, water insoluble formazan in the mitochondria of living cells only. Upon solubilization of the resulting formazan crystals with isopropanol, the absorbance of the solution is monitored at 540 nm. The values correlate directly to the number of living cells remaining in the culture at the completion of the five-day incubation. The inhibitory activity of the compound was monitored on the virus-infected cells and was expressed as EC50 and EC90. These values represent the amount of the compound required to protect 50% and 90%, respectively, of the cells from the cytopathogenic effect of the virus. […] The selectivity index (SI) (ratio CC50/EC50) is an indication of the selectivity of the anti-HIV activity of the inhibitor. Wherever results are reported as e.g. pEC50 or pCC50 values, the result is expressed as the negative logarithm of the result expressed as EC50 or CC50 respectively.

mutant HIV strain A = assay: microbe, parasite or virus in culture; settings: for fold resistance Strain A: FR=EC50 (mutant strain)/EC50 (HIV-1 strain LAI); for EC50: Human immunodeficiency virus 1, MT4, read-out: pEC50 Strain A, mutant HIV strain A, MT4 cells (converted)
Procedure: as §1, with “At the end of the incubation period, the replicating virus in the control cultures has killed all HIV-infected cells in the absence of any inhibitor.” left out

mutant HIV strain B = assay: microbe, parasite or virus in culture; settings: for fold resistance Strain B: FR=EC50 (mutant strain)/EC50 (HIV-1 strain LAI); for EC50: Human immunodeficiency virus 1, MT4, read-out: pEC50 Strain B, mutant HIV strain B, MT4 cells (converted)
Procedure: as §1, with “At the end of the incubation period, the replicating virus in the control cultures has killed all HIV-infected cells in the absence of any inhibitor.” left out

mutant HIV strain E = assay: microbe, parasite or virus in culture; settings: for fold resistance Strain E: FR=EC50 (mutant strain)/EC50 (HIV-1 strain LAI); for EC50: Human immunodeficiency virus 1, MT4, read-out: pEC50 Strain E, mutant HIV strain E, MT4 cells (converted)
Procedure: as §1, with “At the end of the incubation period, the replicating virus in the control cultures has killed all HIV-infected cells in the absence of any inhibitor.” left out

mutant HIV strain C = assay: microbe, parasite or virus in culture; settings: for fold resistance Strain C: FR=EC50 (mutant strain)/EC50 (HIV-1 strain LAI); for EC50: Human immunodeficiency virus 1, MT4, read-out: pEC50 Strain C, mutant HIV strain C, MT4 cells (converted)
Procedure: as §1, with “At the end of the incubation period, the replicating virus in the control cultures has killed all HIV-infected cells in the absence of any inhibitor.” left out

mutant HIV strain D = assay: microbe, parasite or virus in culture; settings: for fold resistance Strain D: FR=EC50 (mutant strain)/EC50 (HIV-1 strain LAI); for EC50: Human immunodeficiency virus 1, MT4, read-out: pEC50 Strain D, mutant HIV strain D, MT4 cells (converted)
Procedure: as §1, with “At the end of the incubation period, the replicating virus in the control cultures has killed all HIV-infected cells in the absence of any inhibitor.” left out

HIV-1 strain LAI = assay: Cellular anti-HIV assay (MT4/MTT), wild type; settings: MT4 cells, read-out: WT (pEC50) (converted)
Procedure: as §1, with “The compounds of the present invention were examined for anti-viral activity in a cellular assay. […] The cellular assay was performed according to the following procedure. HIV-” for “HIV-”, “At the end of the incubation period, the replicating virus in the control cultures has killed all HIV-infected cells in the absence of any inhibitor.” left out

mutant HIV strain F = assay: microbe, parasite or virus in culture; settings: for fold resistance Strain F: FR=EC50 (mutant strain)/EC50 (HIV-1 strain LAI); for EC50: Human immunodeficiency virus 1, MT4, read-out: pEC50 Strain F, mutant HIV strain F, MT4 cells (converted)
Procedure: as §1, with “At the end of the incubation period, the replicating virus in the control cultures has killed all HIV-infected cells in the absence of any inhibitor.” left out

[2] = Human immunodeficiency virus 1, wild type HIV-1 strain LAI
[3] = Human immunodeficiency virus 1, MT4, wild type HIV-1 strain LAI

Compound	CC50 at 5 days [1] [nM]	fold resistance Strain A (mutant HIV strain A)	EC50 (mutant HIV strain A) [nM]	fold resistance Strain B (mutant HIV strain B)	EC50 (mutant HIV strain B) [nM]	fold resistance Strain E (mutant HIV strain E)	EC50 (mutant HIV strain E) [nM]	fold resistance Strain C (mutant HIV strain C)	EC50 (mutant HIV strain C) [nM]	fold resistance Strain D (mutant HIV strain D)	EC50 (mutant HIV strain D) [nM]	EC50 (HIV-1 strain LAI; [2]) [nM]	fold resistance Strain F (mutant HIV strain F)	EC50 (mutant HIV strain F) [nM]	further results
CC(C)CN(C[C@@H](O)[C@H](Cc1ccccc1)NC(=O)OC1CCOC1)S(=O)(=O)c1ccc2nc(N)sc2c1 (stereo partly drawn) [Compound 12, {(1S,2R)-3-[(2-amino-benzothiazole-6-sulfonyl)-isobutyl-amino]-1-benzyl-2-hydroxypropyl}-carbamic acid tetrahydro-furan-3-yl ester]	> 100000	53.7	229	1.8	7.59	1.8	7.76	44.7	191	6.2	26.3	4.27			
CNc1nc2ccc(S(=O)(=O)N(CC(C)C)C[C@@H](O)[C@H](Cc3ccccc3)NC(=O)OCc3cncs3)cc2s1.O=C(O)C(F)(F)F [Compound 19, {(1S,2R)-1-benzyl-2-hydroxy-3-[isobutyl-(2-methylamino-benzothiazole-6-sulfonyl)-amino]-propyl}-carbamic acid thiazol-5-ylmethyl ester trifluoroacetate]															pEC50 Strain A (mutant HIV strain A; mutant HIV strain A, MT4 cells): 7.36; pEC50 Strain B (mutant HIV strain B; mutant HIV strain B, MT4 cells): 7.80; pEC50 Strain F (mutant HIV strain F; mutant HIV strain F, MT4 cells): 6.80; pEC50 Strain E (mutant HIV strain E; mutant HIV strain E, MT4 cells): 7.90; pEC50 Strain C (mutant HIV strain C; mutant HIV strain C, MT4 cells): 7.88; pEC50 Strain D (mutant HIV strain D; mutant HIV strain D, MT4 cells): 7.43; EC50 (HIV-1 strain LAI; [3]): 3.09 nM
Cc1cccc(C)c1OCC(=O)N[C@@H](Cc1ccccc1)[C@H](O)CN(CC(C)C)S(=O)(=O)c1ccc2nc(N)sc2c1 [Compound 8, N-{(1S,2R)-3-[(2-amino-benzothiazole-6-sulfonyl)-isobutyl-amino]-1-benzyl-2-hydroxypropyl}-2-(2,6-dimethyl-phenoxy)-acetamide]	> 10000	4.8	31.6	2.0	13.5	4.2	27.5	3.9	25.7	5.1	33.9	6.61	21.4	141	
Cc1ccccc1C(=O)N[C@@H](Cc1ccccc1)[C@H](O)CN(CC(C)C)S(=O)(=O)c1ccc2nc(N)sc2c1 [Compound 14, N-{(1S,2R)-3-[(2-amino-benzothiazole-6-sulfonyl)-isobutyl-amino]-1-benzyl-2-hydroxypropyl}-2-methyl-benzamide]	46800	234.4	891	7.1	26.9	7.9	30.2	46.8	178	10.5	39.8	3.8			
Cc1cc(CN)cc(C)c1OCC(=O)N[C@@H](Cc1ccccc1)[C@H](O)CN(CC(C)C)S(=O)(=O)c1ccc2nc(N)sc2c1 [Compound 17, N-{(1S,2R)-3-[(2-amino-benzothiazole-6-sulfonyl)-isobutyl-amino]-1-benzyl-2-hydroxypropyl}-2-(4-aminomethyl-2,6-dimethyl-phenoxy)-acetamide]	63100	4.5	31.6	0.9	6.61	1.1	7.59	1.7	12.3	3.3	23.4	7.08	22.4	158	
CNc1nc2ccc(S(=O)(=O)N(CC(C)C)C[C@@H](O)[C@H](Cc3ccccc3)NC(=O)c3cccc(O)c3C)cc2s1 [Compound 23, N-{(1S,2R)-1-benzyl-2-hydroxy-3-[isobutyl-(2-methylamino-benzothiazole-6-sulfonyl)-amino]-propyl}-3-hydroxy-2-methyl-benzamide trifluoroacetate]	69200		288		9.55		7.24		8.71		21.4				EC50 (HIV-1 strain LAI; [3]): 4.57 nM
CC(C)CN(C[C@@H](O)[C@H](Cc1ccccc1)NC(=O)OCc1cccnc1)S(=O)(=O)c1ccc2nc(N)sc2c1 [Compound 9, {(1S,2R)-3-[(2-amino-benzothiazole-6-sulfonyl)-isobutyl-amino]-1-benzyl-2-hydroxypropyl}-carbamic acid pyridin-3-ylmethyl ester]	51300	53.7	263	1.1	5.62	4.9	24	1000.0	4900	8.5	41.7	4.9			
CNc1nc2ccc(S(=O)(=O)N(CC(C)C)C[C@@H](O)[C@H](Cc3ccccc3)NC(=O)COc3c(C)cc(N)cc3C)cc2s1 [Compound 26, 2-(4-amino-2,6-dimethyl-phenoxy)-N-{(1S,2R)-1-benzyl-2-hydroxy-3-[isobutyl-(2-methylamino-benzothiazole-6-sulfonyl)-amino]-propyl}-acetamide]		11.2	30.2	1.5	3.98	2.3	6.17	2.7	7.24	3.1	8.32	2.69	20.9	56.2	
CC(C)CN(C[C@@H](O)[C@H](Cc1ccccc1)NC(=O)OC1COC2OCCC12)S(=O)(=O)c1ccc2nc(N(C)C)sc2c1 (stereo partly drawn) [Compound 6, {(1S,2R)-1-benzyl-3-[(2-dimethylamino-benzothiazole-6-sulfonyl)-isobutyl-amino]-2-hydroxy-propyl}-carbamic acid hexahydro-furo[2,3-b]furan-3-yl ester]	> 100000	50.1	200	32.4	129			8.5	33.9	27.5	110	3.98	177.8	708	
